Test results reported in publication PMC11638965, “Leveraging Dual-Ligase Recruitment to Enhance Protein Degradation via a Heterotrivalent Proteolysis Targeting Chimera” (Journal of the American Chemical Society, 2024).

Key:
[1] = molecular target: T1, BRD3 (Homo sapiens, UniProt Q15059); experiment: Live cell kinetic HiBiT degradation assay, HiBiT-BRD3 HEK293 cells; assay type: cell-based; details: for DC50: HiBiT-BRD3 CRISPR knock-in HEK293 cells, live cell kinetic degradation, 24 h, read-out: Dmax 50 BRD3; for λmax BRD3 (degradation rate): HiBiT-BRD3 knock-in HEK293 cells
T1 construct: HiBiT, is appended to the N-terminus of endogenous BRD2, BRD3, and BRD4; endogenous in cells
T1 sequence (Q15059 whole entry): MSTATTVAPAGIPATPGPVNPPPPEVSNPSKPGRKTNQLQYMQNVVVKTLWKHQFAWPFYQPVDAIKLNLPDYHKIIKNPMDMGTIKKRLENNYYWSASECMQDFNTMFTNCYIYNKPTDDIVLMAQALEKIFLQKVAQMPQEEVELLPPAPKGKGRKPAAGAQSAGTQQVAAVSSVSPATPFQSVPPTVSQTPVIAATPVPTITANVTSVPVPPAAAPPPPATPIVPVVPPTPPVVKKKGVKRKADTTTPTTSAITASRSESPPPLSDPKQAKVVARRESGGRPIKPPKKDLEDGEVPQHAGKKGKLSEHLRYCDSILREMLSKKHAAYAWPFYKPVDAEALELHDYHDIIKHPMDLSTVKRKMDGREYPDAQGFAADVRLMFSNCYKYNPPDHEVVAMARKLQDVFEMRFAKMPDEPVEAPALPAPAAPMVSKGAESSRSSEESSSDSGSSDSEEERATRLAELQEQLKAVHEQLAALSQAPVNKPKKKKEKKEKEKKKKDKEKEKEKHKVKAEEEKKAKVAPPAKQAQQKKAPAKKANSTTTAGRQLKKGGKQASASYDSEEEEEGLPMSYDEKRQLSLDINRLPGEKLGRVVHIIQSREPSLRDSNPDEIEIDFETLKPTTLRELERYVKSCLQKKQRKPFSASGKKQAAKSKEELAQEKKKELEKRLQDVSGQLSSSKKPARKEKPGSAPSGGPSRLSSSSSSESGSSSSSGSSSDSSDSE
Method: (§1) HEK293 HiBiT-BRD2 (LgBiT stable), HEK293 HiBiT-BRD3 (LgBiT stable), and HEK293 HiBiT-BRD4 (LgBiT stable) were created using CRISPR/Cas9 to insert at HiBiT tag at the N-terminal genomic loci of BRD2, BRD3, or BRD4 in a cell line stably expressing LgBiT protein as described previously.[23]
(§2) For kinetic degradation experiments, HEK293 HiBiT-BRD2, 3, or 4 (LgBiT stable) cells and HEK293 HiBiT-BRD4 (LgBiT) CRBN KO and VHL KO cells were plated at 20,000 cells/well in DMEM +10% FBS in white 96-well tissue culture plates and allowed to adhere overnight. The next day, media was removed and 90 μL of prewarmed CO2-independent medium (Gibco) containing Endurazine (Promega) at a 1:100 dilution from stock was added. Plates were incubated at 37 °C for 3 h to allow luminescence to equilibrate. A threefold dilution series of each PROTAC at 10x the desired final concentration was prepared (with the amount of DMSO in each treatment condition kept constant). After luminescence equilibration, a preread luminescence measurement was taken (prior to compound addition) to allow for baseline normalization to account for possible plating differences. Cells were then treated with 10 μL of the prepared PROTAC dilution series (in triplicate or quadruplicate). Treated plates were placed in a GloMax Discover luminometer (Promega) prewarmed to 37 °C and luminescence measurements were obtained every 7 min for 24 h. Kinetic degradation plots were obtained by first normalizing time course luminescence readings in each well to the preread measurement, then to the average value of the DMSO only control at each time point. Data was analyzed using GraphPad Prism (version 8) and excel. Dmax values were identified as the lowest luminescence reading in each well. Rate constant values were calculated using a one phase exponential decay Y = (Y0-Plateau) e(K*^X) + Plateau using Prism (Y0 constrained to 1). Dmax 50 values were calculated by plotting Dmax as a function of concentration, then fitting plots using the following equation: [drawing 1] to determine IC50.

[2] = molecular target: CRBN (Homo sapiens, UniProt Q96SW2); experiment: Western blot dose-response degradation in HEK293 cells; assay type: cell-based; set-up: Western blot data for BET, CRBN and VHL protein levels; endogenous in cells; host or cells: HEK293 (ATCC); details: for DC50: HEK293 cells, 6 h, Western blot, mean ± S.E.M. of three experiments, values marked b mean ± S.D. of two
Chain of CRBN (Q96SW2 whole entry): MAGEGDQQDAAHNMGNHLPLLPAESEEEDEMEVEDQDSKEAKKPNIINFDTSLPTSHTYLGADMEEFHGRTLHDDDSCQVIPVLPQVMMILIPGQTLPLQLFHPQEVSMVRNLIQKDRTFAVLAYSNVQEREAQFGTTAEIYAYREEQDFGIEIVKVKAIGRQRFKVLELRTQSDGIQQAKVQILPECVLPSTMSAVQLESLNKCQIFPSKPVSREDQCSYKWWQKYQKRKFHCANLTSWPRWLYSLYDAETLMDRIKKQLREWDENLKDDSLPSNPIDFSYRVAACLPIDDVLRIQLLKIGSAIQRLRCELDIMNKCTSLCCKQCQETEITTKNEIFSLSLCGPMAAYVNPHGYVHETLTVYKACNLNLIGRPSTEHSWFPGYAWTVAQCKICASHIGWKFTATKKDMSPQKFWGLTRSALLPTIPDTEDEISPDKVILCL
Method: (§3) HEK293 cells were obtained from ATCC. HEK293 was cultured in DMEM supplemented with 10% (v/v) fetal bovine serum (FBS), 1% […] and 1% (v/v) penicillin/streptomycin (pen/strep) at 37 °C, 5% CO2, and 95% humidity.
(§4) HEK293 cells were plated at a density of 5 × 10^5 cells per well of a six well plate a day prior to initiation of the experiment. Compounds were dissolved to a 10 mM concentrated stock solution in DMSO from which the compounds were further diluted to a working concentration range of 1 μM to 100 pM in DMEM and was subsequently added to cells at the initiation of the experiment. An additional vehicle control was added to cells alongside compound treatments. Cells were left to incubate with compound for 6 h at 37 °C, 5% CO2, and 95% humidity. Cells were then subsequently washed twice with PBS before being harvested in RIPA buffer supplemented with protease inhibitor cocktail and Benzonase Nuclease before being store at −20 °C.
(§5) Protein concentration was determined using the BCA assay. Samples were then prepared in LDS buffer containing 5% 1 M DTT and subsequently loaded onto NuPAGE 4–12% Bis-Tris Midi gels, followed by the transfer of the proteins onto nitrocellulose membranes. The membranes were blocked for 1 h prior to incubation with the primary antibodies using 5% Milk TBST. Membranes were incubated at 4 °C in either BRD4(Ab128874), BRD3(Ab50818), BRD2(Ab139690), VHL(CST#68547) and CRBN(CST#71810) primary antibody overnight. Following overnight incubation, the membranes were incubated with complementary IRDye 800CW secondary antibody and a hFAB Rhodamine Anti-Tubulin Primary Antibody (loading control) for 1 h and then imaged with a Bio-Rad imager. All Western blots were analyzed for band intensities using Image Lab (Bio-Rad). The data extracted from these blots were then plotted and analyzed using Prism (v. 10.2.2, GraphPad). Linear regression curve fitting was used to calculate pDC50 values. The standard deviation of the pDC50 was calculated for all compounds that had two independent repeats and the standard error of the mean calculated for all compounds that had three independent repeats. All Western blotting figures were developed in Adobe illustrator.

[3] = molecular target: T2, BRD4^Short (Homo sapiens, UniProt O60885); experiment: as above; assay type: cell-based; details: 6 h, mean ± S.E.M. of three experiments, values marked b mean ± S.D. of two
T2 construct: Western blot data for BET, CRBN and VHL protein levels; endogenous in cells; host or cells: HEK293 (ATCC)
Method: as §3, §4, §5

[4] = molecular target: T3, BRD4^Long (Homo sapiens, UniProt O60885); experiment: as above; assay type: cell-based; details: HEK293 cells, 6 h, Western blot; mean ± S.E.M. of three experiments, values marked b mean ± S.D. of two
T3 construct: Western blot data for BET, CRBN and VHL protein levels; endogenous in cells; host or cells: HEK293 (ATCC)
Method: as §3, §4, §5

[5] = molecular target: T1, BRD3; experiment: as above; assay type: cell-based; details: 6 h, mean ± S.E.M. of three experiments, values marked b mean ± S.D. of two
Method: as §3, §4, §5

[6] = molecular target: T4, BRD2 (Homo sapiens, UniProt P25440); experiment: as above; assay type: cell-based; details: 6 h, mean ± S.E.M. of three experiments, values marked b mean ± S.D. of two
T4 construct: HiBiT, is appended to the N-terminus of endogenous BRD2, BRD3, and BRD4; endogenous in cells
T4 sequence (P25440 whole entry): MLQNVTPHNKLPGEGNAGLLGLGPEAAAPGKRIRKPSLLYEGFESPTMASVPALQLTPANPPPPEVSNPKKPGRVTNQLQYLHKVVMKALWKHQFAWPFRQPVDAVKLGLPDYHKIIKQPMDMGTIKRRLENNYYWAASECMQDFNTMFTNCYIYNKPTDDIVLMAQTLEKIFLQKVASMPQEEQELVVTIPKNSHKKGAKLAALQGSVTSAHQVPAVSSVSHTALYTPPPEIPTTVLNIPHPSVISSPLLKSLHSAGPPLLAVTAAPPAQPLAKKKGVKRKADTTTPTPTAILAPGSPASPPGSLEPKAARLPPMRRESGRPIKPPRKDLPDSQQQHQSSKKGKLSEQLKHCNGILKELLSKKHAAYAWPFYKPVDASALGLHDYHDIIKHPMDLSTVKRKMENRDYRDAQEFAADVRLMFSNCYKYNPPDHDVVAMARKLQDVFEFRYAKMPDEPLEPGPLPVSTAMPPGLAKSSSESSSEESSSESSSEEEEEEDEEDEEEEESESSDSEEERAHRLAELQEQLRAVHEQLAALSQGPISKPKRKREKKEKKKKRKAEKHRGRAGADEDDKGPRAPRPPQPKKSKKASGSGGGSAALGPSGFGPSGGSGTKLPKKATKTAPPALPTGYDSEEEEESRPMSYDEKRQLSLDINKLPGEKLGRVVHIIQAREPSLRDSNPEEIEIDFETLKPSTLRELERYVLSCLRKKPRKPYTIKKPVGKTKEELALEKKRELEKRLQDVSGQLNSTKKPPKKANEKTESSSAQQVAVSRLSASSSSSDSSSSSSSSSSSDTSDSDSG
Method: as §3, §4, §5

[7] = molecular target: T4, BRD2; experiment: Live cell kinetic HiBiT degradation assay, HiBiT-BRD2 HEK293 cells; assay type: cell-based; details: for DC50: HiBiT-BRD2 CRISPR knock-in HEK293 cells, live cell kinetic degradation, 24 h, read-out: Dmax 50 BRD2; for λmax BRD2 (degradation rate): HiBiT-BRD2 knock-in HEK293 cells
Method: as §1, §2

[8] = tested on: K562 cells; experiment: Cell viability assay (CellTiter-Glo); assay type: cell-based, human; details: Homo sapiens; WT K562, 5.12 pM to 10 uM, n = 3 (Table S4)
[9] = tested on: KBM7 cells; experiment: Cell viability assay (CellTiter-Glo); assay type: cell-based, human; details: Homo sapiens, KBM-7; WT KBM7, 5.12 pM to 10 uM, n = 3 (Table S4)

Row | SMILES | DC50 [1] [nM] | λmax BRD3 (degradation rate) [1] [h⁻¹] | DC50 [2] [nM] | DC50 [3] [nM] | DC50 [4] [nM] | DC50 [5] [nM] | DC50 [6] [nM] | DC50 [7] [nM] | λmax BRD2 (degradation rate) [7] [h⁻¹] | EC50 [8] [nM] | EC50 [9] [nM] | fold increase in CRBN degradation vs nonmethylated matched pair ([2]; 27 vs 26, 24 vs 23, DC50, HEK293 Western blot) [fold]
1 | Cc1ncsc1-c1ccc(CNC(=O)[C@@H]2C[C@@H](O)CN2C(=O)[C@@H](NC(=O)COCC(C)(COCCOCCOCCNc2cc3c(cc2F)C(=O)N(C2CCC(=O)NC2=O)C3=O)COCCOCCOCCOC(=O)C[C@@H]2N=C(c3ccc(Cl)cc3)c3c(sc(C)c3C)-n3c(C)nnc32)C(C)(C)C)cc1 (mixture of isomers) [AB3063 (26), (17S)-11-((2-(2-(2-((2-(2,6-dioxopiperidin-3-yl)-6-fluoro-1,3-dioxoisoindolin-5-yl)amino)ethoxy)ethoxy)ethoxy)methyl)-17-((2S,4R)-4-hydroxy-2-((4-(4-methylthiazol-5-yl)benzyl)carbamoyl)pyrrolidine-1-carbonyl)-11,18,18-trimethyl-15-oxo-3,6,9,13-tetraoxa-16-azanonadecyl 2-((S)-4-(4-chlorophenyl)-2,3,9-trimethyl-6H-thieno[3,2-f][1,2,4]triazolo[4,3-a][1,4]diazepin-6-yl)acetate] | 1.5 | 2.54 | 200 ± 31 | 3.2 ± 0.9 | 0.76 ± 0.1 | 4.8 ± 2.4 | 14 ± 4.6 | 4.7 | 1.72 | 74.1 | 21.2 | –
2 | Cc1ncsc1-c1ccc(CNC(=O)[C@@H]2C[C@@H](O)CN2C(=O)[C@@H](NC(=O)COCC(C)(COCCOCCOCCNc2cccc3c2C(=O)N(C2CCC(=O)NC2=O)C3=O)COCCOCCOC(=O)C[C@@H]2N=C(c3ccc(Cl)cc3)c3c(sc(C)c3C)-n3c(C)nnc32)C(C)(C)C)cc1 (mixture of isomers) [AB3064 (25), (14S)-8-((2-(2-(2-((2-(2,6-dioxopiperidin-3-yl)-1,3-dioxoisoindolin-4-yl)amino)ethoxy)ethoxy)ethoxy)methyl)-14-((2S,4R)-4-hydroxy-2-((4-(4-methylthiazol-5-yl)benzyl)carbamoyl)pyrrolidine-1-carbonyl)-8,15,15-trimethyl-12-oxo-3,6,10-trioxa-13-azahexadecyl 2-((S)-4-(4-chlorophenyl)-2,3,9-trimethyl-6H-thieno[3,2-f][1,2,4]triazolo[4,3-a][1,4]diazepin-6-yl)acetate] | 8.1 | 1.69 | 480 ± 370 | 18 ± 3.3 | 12 ± 2.4 | 28 ± 0.8 | 75 ± 20 | 74 | 1.34 | 369 | 168 | –
3 | Cc1ncsc1-c1ccc(CNC(=O)[C@@H]2C[C@@H](O)CN2C(=O)[C@@H](NC(=O)COCC(C)(COCCOCCOCCNc2cc3c(cc2F)C(=O)N(C2CCC(=O)NC2=O)C3=O)COCCOCCOC(=O)C[C@@H]2N=C(c3ccc(Cl)cc3)c3c(sc(C)c3C)-n3c(C)nnc32)C(C)(C)C)cc1 (mixture of isomers) [AB3065 (28), (14S)-8-((2-(2-(2-((2-(2,6-dioxopiperidin-3-yl)-6-fluoro-1,3-dioxoisoindolin-5-yl)amino)ethoxy)ethoxy)ethoxy)methyl)-14-((2S,4R)-4-hydroxy-2-((4-(4-methylthiazol-5-yl)benzyl)carbamoyl)pyrrolidine-1-carbonyl)-8,15,15-trimethyl-12-oxo-3,6,10-trioxa-13-azahexadecyl 2-((S)-4-(4-chlorophenyl)-2,3,9-trimethyl-6H-thieno[3,2-f][1,2,4]triazolo[4,3-a][1,4]diazepin-6-yl)acetate] | 1.2 | 2.14 | 310 ± 200 | 12 ± 5.8 | 10 ± 4.4 | 14 ± 7.5 | 21 ± 5.4 | 23 | 1.46 | 110 | 39.4 | –
4 | Cc1ncsc1-c1ccc([C@H](C)NC(=O)[C@@H]2C[C@@H](O)CN2C(=O)[C@@H](NC(=O)COCC(C)(COCCOCCOCCNc2cccc3c2C(=O)N(C2CCC(=O)NC2=O)C3=O)COCCOCCOCCOC(=O)C[C@@H]2N=C(c3ccc(Cl)cc3)c3c(sc(C)c3C)-n3c(C)nnc32)C(C)(C)C)cc1 (mixture of isomers) [AB3066 (24), (17S)-11-((2-(2-(2-((2-(2,6-dioxopiperidin-3-yl)-1,3-dioxoisoindolin-4-yl)amino)ethoxy)ethoxy)ethoxy)methyl)-17-((2S,4R)-4-hydroxy-2-(((S)-1-(4-(4-methylthiazol-5-yl)phenyl)ethyl)carbamoyl)pyrrolidine-1-carbonyl)-11,18,18-trimethyl-15-oxo-3,6,9,13-tetraoxa-16-azanonadecyl 2-((S)-4-(4-chlorophenyl)-2,3,9-trimethyl-6H-thieno[3,2-f][1,2,4]triazolo[4,3-a][1,4]diazepin-6-yl)acetate] | – | 2.66 | 81 ± 11 | 5.9 ± 2.3 | 6.8 ± 1.3 | 8.9 ± 1.5 | 43 ± 1.1 | 7.3 | 2.04 | 134 | 38 | ~2.6
